pIC50: −log10 of the molar value. Values belong to the compound of their own block, whether it stands above or below them. Calls of active or inactive are those of the source. The rule behind the calls is not given here.
Experiments:
HEL [1] = assay: Cytotoxicity against HEL cells assessed as inhibition of cell growth; type: functional, cell-based; conditions: Homo sapiens
[2] = Stability of compound in PBS measured after 24 hrs; type: physicochemical; conditions: PBS, read-out: Stability
[3] = Stability of compound in mouse plasma measured after 24 hrs; type: ADME, cell-free; conditions: read-out: Stability
[4] = Stability of compound in human plasma measured after 24 hrs; type: ADME, cell-free; conditions: read-out: Stability
[5] = Prodrug release in HEL cells assessed as N-tert-butyl-3-[[5-methyl-2-(4-piperazin-1-ylanilino)pyrimidin-4-yl]amino]benzenesulfonamide formation at 1 uM illuminated with 405 nm light for 10 mins and measured after 6 hrs by LC-MS/MS analysis; type: ADME, cell-based; conditions: human, 6.167 h, time 370 min
[6] = Prodrug release in HEL cells assessed as 3-cyclopropyl-1-(3-{5-[(morpholin-4-yl)methyl]-1H-1,3-benzodiazol-2-yl}-1H-pyrazol-4-yl)urea formation at 1 uM illuminated with 405 nm light for 10 mins and measured after 6 hrs by LC-MS/MS analysis; type: ADME, cell-based; conditions: human, 6.167 h, time 370 min
[7] = Prodrug release in HEL cells assessed as N-tert-butyl-3-[[5-methyl-2-(4-piperazin-1-ylanilino)pyrimidin-4-yl]amino]benzenesulfonamide formation at 1 uM incubated under dark condition for 6 hrs by LC-MS/MS analysis; type: ADME, cell-based; conditions: human
[8] = Prodrug release in HEL cells assessed as 3-cyclopropyl-1-(3-{5-[(morpholin-4-yl)methyl]-1H-1,3-benzodiazol-2-yl}-1H-pyrazol-4-yl)urea formation at 1 uM incubated under dark condition for 6 hrs by LC-MS/MS analysis; type: ADME, cell-based; conditions: human
[9] = Cytotoxicity against HUVEC cells assessed as inhibition of cell growth; type: toxicity, cell-based; conditions: human
HEL [10] = assay: Cytotoxicity against HEL cells assessed as inhibition of cell growth irradiated with 450 nm light; type: functional, cell-based; conditions: Homo sapiens, light or radiation study
HEL [11] = assay: Cytotoxicity against HEL cells assessed as inhibition of cell growth incubated under dark condition; type: functional, cell-based; conditions: Homo sapiens
HEL [12] = assay: Inhibition of JAK/STAT phosphorylation in HEL cells assessed as reduction in STAT3 phosphorylation at 1 uM irradiated with 450 nm light by Western blot analysis relative to control; type: cell-based; conditions: Homo sapiens
HEL [13] = assay: Inhibition of JAK/STAT phosphorylation in HEL cells assessed as reduction in STAT5 phosphorylation at 1 uM irradiated with 450 nm light by Western blot analysis relative to control; type: cell-based; conditions: Homo sapiens
HEL [14] = assay: Inhibition of JAK/STAT phosphorylation in HEL cells assessed as reduction in STAT3 phosphorylation at 1 uM incubated under dark condition by Western blot analysis relative to control; type: cell-based; conditions: Homo sapiens
HEL [15] = assay: Inhibition of JAK/STAT phosphorylation in HEL cells assessed as reduction in STAT5 phosphorylation at 1 uM incubated under dark condition by Western blot analysis relative to control; type: cell-based; conditions: Homo sapiens
HEL [16] = assay: Cytotoxicity against HEL cells assessed as inhibition of cell growth irradiated with 450 nm light and incubated in presence of N-tert-butyl-3-[[5-methyl-2-(4-piperazin-1-ylanilino)pyrimidin-4-yl]amino]benzenesulfonamide; type: functional, cell-based; conditions: Homo sapiens, light or radiation study
HEL [17] = assay: Cytotoxicity against HEL cells assessed as inhibition of cell growth incubated under dark condition in presence of N-tert-butyl-3-[[5-methyl-2-(4-piperazin-1-ylanilino)pyrimidin-4-yl]amino]benzenesulfonamide; type: functional, cell-based; conditions: Homo sapiens
HEL [18] = assay: Cytotoxicity against HEL cells assessed as inhibition of cell growth incubated under hypoxic condition in presence of N-tert-butyl-3-[[5-methyl-2-(4-piperazin-1-ylanilino)pyrimidin-4-yl]amino]benzenesulfonamide; type: functional, cell-based; conditions: Homo sapiens
HEL [19] = assay: Cytotoxicity against HEL cells assessed as inhibition of cell growth incubated under normoxic condition in presence of N-tert-butyl-3-[[5-methyl-2-(4-piperazin-1-ylanilino)pyrimidin-4-yl]amino]benzenesulfonamide; type: functional, cell-based; conditions: Homo sapiens
HEL [20] = assay: Cytotoxicity against HEL cells assessed as inhibition of cell growth incubated under normoxic condition in presence of 3-cyclopropyl-1-(3-{5-[(morpholin-4-yl)methyl]-1H-1,3-benzodiazol-2-yl}-1H-pyrazol-4-yl)urea; type: functional, cell-based; conditions: Homo sapiens
HEL [21] = assay: Antitumor activity against HEL cells xenografted in Balb/c nude mouse assessed as tumor growth inhibition at 25 mg/kg, ip administered once daily for 14 consecutive days relative to control; type: functional, Homo sapiens; conditions: 336 h, time 14 day, read-out: TGI
HEL [22] = assay: Antitumor activity against HEL cells xenografted in Balb/c nude mouse assessed as tumor growth inhibition at 25 mg/kg, ip administered once daily for 14 consecutive days in presence of N-tert-butyl-3-[[5-methyl-2-(4-piperazin-1-ylanilino)pyrimidin-4-yl]amino]benzenesulfonamide relative to control; type: functional, Homo sapiens; conditions: 336 h, time 14 day, read-out: TGI
HEL [23] = assay: Antitumor activity against HEL cells xenografted in Balb/c nude mouse assessed as induction of apoptosis in tumor at 25 mg/kg, ip administered once daily for 14 consecutive days in presence of N-tert-butyl-3-[[5-methyl-2-(4-piperazin-1-ylanilino)pyrimidin-4-yl]amino]benzenesulfonamide by TUNEL assay relative to control; type: functional, organism-based; conditions: Homo sapiens, time 14.0 day

SMILES: N#CC[C@H](C1CCCC1)n1cc(-c2ncnc3[nH]ccc23)cn1 [RUXOLITINIB]
pIC50 (HEL [1]): 5.13

remaining at 24 h [2]: > 95.1% | remaining at 24 h [3]: > 82.8% | remaining at 24 h [4]: > 78.3% | Drug metabolism [5]: Metabolite_Detected | Drug metabolism [6]: Metabolite_Detected | Drug metabolism [7]: Metabolite_Notdetected | Drug metabolism [8]: Metabolite_Notdetected
SMILES: CCN(CC)c1ccc2c(COC(=O)Oc3c(COC(=O)N4CCN(c5ccc(Nc6ncc(C)c(Nc7cccc(S(=O)(=O)NC(C)(C)C)c7)n6)cc5)CC4)cc(C)cc3COC(=O)n3cc(NC(=O)NC4CC4)c(-c4nc5cc(CN6CCOCC6)ccc5[nH]4)n3)cc(=O)oc2c1
pIC50 [9]: < 3.70 | pIC50 (HEL [10]): 5.74 | pIC50 (HEL [11]): < 3.70 | inhibition (HEL [12]): 100% | inhibition (HEL [13]): 100% | inhibition (HEL [14]): inactive | inhibition (HEL [15]): inactive

SMILES: O=C(Nc1c[nH]nc1-c1nc2ccc(CN3CCOCC3)cc2[nH]1)NC1CC1 [AT-9283]
pIC50 (HEL [16]): 5.66 | pIC50 (HEL [17]): 5.85 | pIC50 (HEL [18]): 5.87 | pIC50 (HEL [19]): 6.19 | pIC50 (HEL [20]): 6.19 | inhibition in vivo at 25 mg/kg (HEL [21]): 85.9% | inhibition in vivo at 25 mg/kg (HEL [22]): 91.2% | Activity (HEL [23]): Active | pIC50 (HEL [1]): 5.98

SMILES: C[C@@H]1CCN(C(=O)CC#N)C[C@@H]1N(C)c1ncnc2[nH]ccc12 [TOFACITINIB]
pIC50 (HEL [1]): 5.42
